From patent US20060171983A1, “Use of Vitamin D receptor activators or Vitamin D analogs to treat cardiovascular disease” (priority 2003, published 2006)
Read-outs that look alike come from different tables or passages of the source.

Key:
human CASMC = experiment: 45Ca uptake into primary culture of human coronary artery smooth muscle cells; settings: 1-100 nM, cells in N1 or 60% N1/40% P1 media, 5 days
Procedure: Primary cultured human CASMC were grown to >80% confluence and used within five passages. Cells were treated with drugs for 5 days in the appropriate medium, and then changed back to base medium (N1: DMEM containing 1.8 mM Ca^+2 and 0.9 mM PO−4) containing 0.2 μCi/ml ^45Ca for 24 hr. Afterwards, cells were washed with PBS three times and radioactivity measured by liquid scintillation.

PAI-1 = PAI-1 Western blot in primary culture of human coronary artery smooth muscle cells; format: cell-based; settings: 24 hr
Procedure: Human coronary artery smooth muscle cells were incubated with paricalcitol or calcitriol at the indicated concentration for 24 hr at 37° C. Samples were solubilized in SDS-PAGE sample buffer, and the protein content in each sample was determined by the Bio-Rad dye-binding protein assay. Samples were resolved by SDS-PAGE using a 4-12% gel, and proteins were electrophoretically transferred to PVDF membrane for Western blotting. The membrane was blotted for 1 h at 25° C. with 5% nonfat dry milk in PBS-T and then incubated with a mouse anti-PAI-1 monoclonal antibody in PBS-T overnight at 4° C. The membrane was washed with PBS-T and incubated with a horseradish peroxidase-labeled […] antibody for 1 h at 25° C. The membrane was then incubated with detection reagent (SuperSignal WestPico). The specific bands were visualized by exposing the paper to Kodak BioMax films.

[1] = Observational cohort study of hospitalization outcomes in hemodialysis patients; format: in vivo, human
Excerpt: This study was expanded to include patients who received no Vitamin D receptor activator treatment. [“Improved hospitalization outcomes in hemodialysis patients treated with paricalcitol.” J. Melnick, et al., abstract book from World Congress of Nephrology, Jun. 8-12, 2003, Berlin.

[2] = test system: bovine vascular smooth muscle cells (SMC); settings: 10^-7 to 10^-9 M, in vitro; cited from earlier work
[3] = Vascular calcification in 5/6 nephrectomized uremic rats; format: in vivo, rat
Procedure: The 5/6 nephrectomized rats were obtained from Charles River Labs. (Wilmington, Mass.). Two weeks after nephrectomy, rats were put on a diet containing 0.9% phosphorous and 0.6% calcium for 4 weeks, followed by treatment with vehicle (5% ethanol+95% propylene glycol, 0.4 ml/kg), paricalcitol or doxercalciferol at 0.67 μg/kg, i.p., 3 times/week, for 2 weeks. Twenty-four hours after the last dosing, blood was collected via tail vein under ketamine anesthesia (50 mg/kg) and aorta collected for calcification studies. […] After the aortas were removed in a sterile manner from the rats, the aventitia was gently removed and each aorta was washed three times with medium. A segment of each aorta was processed for calcium and phoshphorus determination. A separate portion of each aorta was denuded, cut into 2-3-mm rings and placed in DMEM containing 0.2 μCi/ml ^45Ca for 3 days at 37° C. Afterwards, aortic rings were washed, dried, weighed, and then dissolved to determine radioactivity. […] Both paricalcitol and doxercalciferol at 0.67 μg/kg elevated iCa (˜25%) and suppressed PTH (>90%).

[4] = format: in vivo, rat
Procedure: It is clinically important to suppress elevated serum PTH levels in ESRD patients with established secondary hyperparathyroidism (SHPT) independent of hypercalcemia. Moreover, the 5/6 uremic rat model has effectively predicted the clinical profile of vitamin D analogues with respect to PTH and hypercalcemia. Thus, a direct comparison was conducted of paricalcitol (PARI) and doxercalciferol (DOX) in male Sprague Dawley rats subjected to 5/6 nephrectomy (surgical ablation) placed on 4 weeks of a high phosphorous diet (0.9% phos., 0.6% Ca) to establish SHPT. On Day 0, rats received vehicle (VEH; 5% ethanol, 95% propylene glycol; 0.4 ml/kg; IP) or drug (0.083, 0.17, 0.33, 0.66 mcg/kg; n=7-10/group) 3 times/week for 12 days. Blood samples were collected 24 hr post dose (Day 13). Day 0 values (mean±SEM) for: creatinine (VEH vs sham) were 1.02±0.05 vs 0.48±0.01 mg/dL; PTH, 1320±185 vs 178±11 pg/ml; blood ionized calcium (iCa; 1.26±0.01 vs 1.30±0.01 mmol/L); phosphorous (8.70±0.34 vs 7.36±0.09 mg/dL). In VEH, the ratio of Day 13/Day 0 iCa values declined to 0.93±0.02 vs 1.02±0.01 for sham; PTH and phosphorous tended to increase. […] PARI had no effect on iCa at 0.33 mcg/kg whereas the iCa ratio increased modestly to 1.05±0.02*# at 0.66 mcg/kg, less than that of DOX. The Day 13/Day 0 PTH ratios for DOX fell to 0.43±0.12, 0.26±0.06*, and 0.22±0.11* in response to 0.18, 0.33, 0.66 mcg/kg, respectively, while PARI decreased PTH ratios to 0.37±0.07*, 0.33±0.06*, 0.13±0.02*. Serum phosphorus was not affected in any treatment group. […] Thus, in the uremic rat with established SHPT, DOX suppresses serum PTH levels concomitant with dose-dependent elevations in ionized calcium greater than those caused by equal doses of. PARI. At these doses, PARI effectively reduces PTH without eliciting dose-dependent changes in ionized blood calcium. *=p<0.05 vs. VEH ANOVA; # p<0.05 unpaired t test DOX vs PARI

[5] = Active calcium transport in duodenum ex vivo; set-up: species or system rat; settings: uremic rats with SHPT
[6] = 0.67 μg/kg i.p. 3 times/week for 2 weeks

Row | Structure (SMILES) | effect on 45Ca uptake (human CASMC) | potency in reducing the PAI level (PAI-1) | median number of days spent in the hospital (hospital days per year) ([1]; hemodialysis patients, FIG. 2) [days] | median number of hospitalizations in a year ([1]; hemodialysis patients, FIG. 2) | fewer hospital days compared to the No Vitamin D group ([1]; regression analysis, FIG. 3) [days] | fewer hospitalizations compared to the No Vitamin D group ([1]; regression analysis, FIG. 3) | calcification of bovine vascular smooth muscle cells [2] | elevation of iCa ([3]; 0.67 μg/kg) [%] | Ca content in aorta compared to vehicle [3, 6] [fold] | phosphorus content in aorta compared to vehicle [3, 6] [fold] | 45Ca uptake in aorta rings compared to vehicle ([3]; 0.67 μg/kg i.p. 3 times/week for 2 weeks, rings 3 days in 45Ca) [fold] | Day 13/Day 0 PTH ratio ([4]; 0.18 mcg/kg IP 3 times/week for 12 days) | Day 13/Day 0 PTH ratio ([4]; 0.33 mcg/kg IP 3 times/week for 12 days) | Day 13/Day 0 PTH ratio ([4]; 0.66 mcg/kg IP 3 times/week for 12 days) | active calcium transport in duodenum ex vivo [5]
1 | C=C1/C(=C\C=C2/CCC[C@]3(C)[C@@H]([C@H](C)CCCC(C)(C)O)CC[C@@H]23)C[C@@H](O)C[C@@H]1O [calcitriol] | no significant effects | equally potent | 10.6 | 2.2 | 7.7 | no statistical difference | dose dependent increase |  |  |  |  |  |  |  | 
2 | C=C1/C(=C\C=C2/CCC[C@]3(C)[C@@H]([C@H](C)/C=C/[C@H](C)C(C)C)CC[C@@H]23)C[C@@H](O)C[C@@H]1O [doxercalciferol] |  |  |  |  |  |  |  | ~25 | 1.0 | 17 | 40 | 0.43±0.12 | 0.26±0.06 | 0.22±0.11 | dose-dependent increase
